Assays:
[1] = biological target: T1, Metabotropic glutamate receptor 5 (Homo sapiens, UniProt P41594); test: Radioligand Binding Assay at Cloned Human mGluR5 Receptor Subtype: Affinity at transmembrane glutamate metabotropic cloned human mGluR5 receptor was evaluated according to the methods of Anderson (Anderson et al., J Pharmacol. Exp. Ther., (2002), Vol. 303(3), pp. 1044-51), with some modifications. Human cloned mGluR5 was obtained by re-suspending CHO T-REx h-mGluR5 cells (50 μg/well) in 20 mM HEPES, 2 mM MgCl2, 2 mM CaCl2, pH 7.4, that then were incubated in a final volume of 1 ml for 60 min at 25° C. with 4 nM [3H]MPEP in the absence or presence of competing drugs. Non-specific binding was determined in the presence of 10 μM MPEP. The incubation was stopped by addition of cold Tris buffer pH 7.4 and rapid filtration through 0.2% polyethyleneimine pretreated Filtermat 1204-401 (Perkin Elmer) filters. The filters were then washed with cold buffer and the radioactivity retained on the filters was counted by liquid scintillation spectrometry (Betaplate 1204 BS-Wallac).
T1 sequence (P41594 whole entry): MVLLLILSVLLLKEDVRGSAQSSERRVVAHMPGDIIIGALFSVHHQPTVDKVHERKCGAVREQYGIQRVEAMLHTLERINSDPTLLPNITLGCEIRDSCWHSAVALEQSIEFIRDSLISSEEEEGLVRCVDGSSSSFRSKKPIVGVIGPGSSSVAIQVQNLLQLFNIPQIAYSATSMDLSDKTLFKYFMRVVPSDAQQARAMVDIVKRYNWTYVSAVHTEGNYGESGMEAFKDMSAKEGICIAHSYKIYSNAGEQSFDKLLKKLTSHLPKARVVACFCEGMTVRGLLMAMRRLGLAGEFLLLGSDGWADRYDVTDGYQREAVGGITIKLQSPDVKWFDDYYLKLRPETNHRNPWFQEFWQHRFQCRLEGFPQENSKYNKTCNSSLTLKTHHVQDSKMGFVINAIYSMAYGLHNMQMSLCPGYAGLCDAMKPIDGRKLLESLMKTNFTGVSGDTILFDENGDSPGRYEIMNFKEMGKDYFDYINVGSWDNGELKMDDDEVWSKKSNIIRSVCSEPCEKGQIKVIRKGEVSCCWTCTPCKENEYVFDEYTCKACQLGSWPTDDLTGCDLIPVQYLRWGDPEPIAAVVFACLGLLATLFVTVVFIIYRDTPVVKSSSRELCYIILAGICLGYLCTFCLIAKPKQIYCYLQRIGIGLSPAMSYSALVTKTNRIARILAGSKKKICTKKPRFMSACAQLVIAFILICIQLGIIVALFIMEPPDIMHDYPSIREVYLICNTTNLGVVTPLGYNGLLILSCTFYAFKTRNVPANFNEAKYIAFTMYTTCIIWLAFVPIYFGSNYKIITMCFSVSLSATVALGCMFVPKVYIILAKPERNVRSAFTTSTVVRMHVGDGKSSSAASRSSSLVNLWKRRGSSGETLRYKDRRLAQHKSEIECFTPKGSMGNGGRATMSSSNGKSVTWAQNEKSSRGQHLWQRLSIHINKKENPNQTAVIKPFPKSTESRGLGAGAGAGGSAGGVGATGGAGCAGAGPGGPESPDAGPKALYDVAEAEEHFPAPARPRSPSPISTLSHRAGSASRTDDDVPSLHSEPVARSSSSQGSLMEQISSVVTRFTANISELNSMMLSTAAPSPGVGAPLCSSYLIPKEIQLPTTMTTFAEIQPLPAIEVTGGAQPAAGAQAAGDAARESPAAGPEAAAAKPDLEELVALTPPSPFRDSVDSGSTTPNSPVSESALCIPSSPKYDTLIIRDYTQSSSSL

[2] = biological target: T1, Metabotropic glutamate receptor 5; test: Fold Shift of Agonist Curve Determination: The PAM potency was evaluated by performing an agonist concentration response curve in the presence of the compounds. The compounds at fixed concentration (0.01 or 0.1 or 1 μM) were applied 10 minutes before the incubation of the agonist (quisqualate or glutamate) dose-response curve. The fold shift was determined as ratio of EC50 agonist curves in presence and in absence of test compound.

| SMILES | Ki [1] | EC50 [2] |
| --- | --- | --- |
| Cc1cccc(C#CC=C2CC(C)(C)NC(C)(C)C2)n1 | 26.9 nM |  |
| COc1cc(OC)nc(C(=O)N2CC/C(=C\C#Cc3cccc(Cl)c3)C(C)(C)C2)n1 | 2.24 nM | 51.7 nM |

Reference: ChEMBL document CHEMBL5729315, “Heterocyclylmethylidene derivatives and their use as modulators of mGluR5 receptors” (2022)
